Experiments:
Type in all cases: in vivo
Aonidiella aurantii = assay: Example 15: orange trees treated against Aonidiella aurantii; details: on fruits, % a.i.: Tokuthion 0.048 (once), I-9 0.0096, I-2 0.0096 (two applications)
Procedure: In three replications, 3-year-old orange trees of the cultivar “Midnight Valenzia” are treated against Aonidiella aurantii. Two applications are carried out at an interval of 72 days, using a motor-operated knapsack sprayer. Here, the active compounds Example (I-9) (240 SC) and Example (I-2) (240 SC) in a tank mix with 0.1% a.i. of rapeseed oil methyl ester (500 EW) at the stated application rate are tested against the standard Tokuthion (960 EC) at the stated amounts. applied once. The application rate is 4 l of water per tree.
Evaluation is carried out 130 and 176 days after the treatment by rating the kill on the fruits.

Ceroplastes rubens = assay: Example 12: satsuma trees treated against Ceroplastes rubens; details: 41 days after treatment; live animals counted, Henderson and Tilton; satsuma tree; % a.i.: buprofezin 0.025, I-4 0.0072
Procedure: In three replications, in each case one about 4-year-old satsuma tree of the cultivar “Nankan 20” is treated against Ceroplastes rubens. Here, the active compound Example (I-4) (240 SC) in a tank mix with 0.1% of rapeseed oil methyl ester (500 EW) at the stated application rate is tested against the commercial standard buprofezin (25 WP) at the stated application rate. The application is carried out using a motor-operated knapsack sprayer. Here, treatment is carried out using an application rate of 400 l of water/ha.
Evaluation is carried out before and 41 days after the treatment by counting the live animals. The efficacy in percent is then calculated according to Henderson and Tilton.

Bemisia tabaci = assay: Example 38: melons treated against Bemisia tabaci; details: nymphs on leaves, g a.i./ha: Confidor 100, I-4 72
Procedure: In three replications, plots of a size of about 7.5 m^2 with melons of the cultivar “Piel DE Sapo” are treated against Bemisia tabaci. The application is carried out with a motor-operated knapsack sprayer. Here, the active compound Example (I-4) (240 SC), in a tank mix with 0.1% of a.i. of rapeseed oil methyl ester (500 EW), and the commercial standard Confidor (200 SL) are applied at the stated application rates. Two applications are carried out, at an interval of 7 days and at an application rate of 233 l of water/ha.
Evaluation is carried out 7 and 15 days after the second treatment by rating the kill of the animals (nymphs) on the leaves.

Pseudococcus citri = assay: Example 26: citrus trees treated against Pseudococcus citri; details: 62 days after treatment, larvae on fruits, g a.i./ha/m crown height: Dursban 960, I-4 72
Procedure: In three replications, in plots of a size of about 20 m^2, citrus trees of the cultivar “Oro Nules” are treated against Pseudococcus citri. The application is carried out using a high-pressure sprayer. Here, the active compound Example (I-4) (240 SC), in a tank mix with 0.1% a.i. of rapeseed oil methyl ester (500 EW), is tested against the commercial standard Dursban (480 EC), at the stated application rates. The application rate is 2500 l of water/ha.
Evaluation is carried out 62 days after the treatment by rating the kill of the larvae on the fruits.

Orthezia praelonga = assay: Example 25: orange trees treated against Orthezia praelonga; details: population on leaves, % a.i.: methidathion 0.05, I-4 0.0144, I-9 0.0144
Procedure: In two replications, two about 7-year-old orange trees of the cultivar “Pera Rio” are treated against Orthezia praelonga. Here, the active compounds Example (I-4) (240 SC) and Example (I-9) (240 SC), in a tank mix with 0.1% a.i. of Renex, are tested against the commercial standard Methidathion (400 EC), at the stated application rates. The application is carried out using a knapsack sprayer operated with pressurized air. Evaluation is carried out 6 and 16 days after the treatment by rating the kill of the population on the leaves.

Myzus persicae = assay: Example 54: bell pepper plants treated against Myzus persicae; details: on leaves, g a.i./ha: Provado 50, I-4 48
Procedure: In four replications, plots of a size of about 8.4 m^2 with 36 11-week-old bell pepper plants of the cultivar “Casea dura ikeda” are treated against Myzus persicae. The application is carried out using a knapsack sprayer operated with pressurized air. Here, the active compound Example (I-4) (240 SC), in a tank mix with 0.2% a.i. of rapeseed oil methyl ester (500 EW), is tested against the commercial standard Provado (200 SC), at the stated application rates. The application rate is 600 l of water/ha. There are three applications, in each case at an interval of 7 d.
Evaluation is carried out 1, 7, and 14 days after the last treatment by rating the kill of the animals on the leaves.

Saissetia oleae = assay: Example 14: orange trees (Navelina) treated against Saissetia oleae; details: 120 d after treatment, kill on branches, % a.i.: Dursban 0.096, I-4 0.012, I-9 0.0054, pyriproxyfen 0.005
Procedure: In three replications, orange trees of the cultivar “Navelina” are treated against Saissetia oleae. Here, the active compounds Example (I-4) (240 SC) and Example (I-9) (240 SC) in a tank mix with 0.1% of rapeseed oil methyl ester (500 EW) at the stated application rate are tested against the commercial standards Dursban (480 EC) and pyriproxyfen (100 EC) at the stated application rate. The application is carried out using a motor-operated knapsack sprayer. The application rate is 3200 l of water/ha.
Evaluation is carried out 120 days after the treatment by rating the kill of the animals on the branches.

[1] = system: Selenaspidius articulatus; assay: Example 19: orange trees treated against Selenaspidius articulatus; details: 100 d after treatment, on leaves, % a.i.: methidathion 0.05, I-9 0.0288, I-4 0.0144
Procedure: In three replications, 3-year-old orange trees of the cultivar “Pera natal” are treated against Selenaspidius articulatus. The application is carried out using a motor-operated knapsack sprayer. Here, the active compounds Example (I-9) (240 SC) and Example (I-4) (240 SC) at the stated application rate are tested against the standard methidathion (400 EC) in the stated amounts, applied once. The application rate is 3.3 l of water per tree.
Evaluation is carried out 100 days after the treatment by rating the kill on the leaves.

Compound | Kill (%) 130 d (Aonidiella aurantii; 130 d after treatment) [%] | Kill (%) 176 d (Aonidiella aurantii; 176 d after treatment) [%] | Effect (%) (Ceroplastes rubens) | Kill (%) 7 d (Bemisia tabaci; 7 d after second treatment) [%] | Kill (%) 15 d (Bemisia tabaci; 15 d after second treatment) [%] | Kill (%) 62 days (Pseudococcus citri) [%] | Kill (%) 6 d (Orthezia praelonga; 6 d after treatment) [%] | Kill (%) 16 d (Orthezia praelonga; 16 d after treatment) [%] | Kill (%) 1 d (Myzus persicae; 1 d after last of three treatments) [%] | Kill (%) 7 d (Myzus persicae; 7 d after last of three treatments) [%] | Kill (%) 14 d (Myzus persicae; 14 d after last of three treatments) [%] | Effect (%) 120 d (Saissetia oleae) [%] | Kill (%) 100 d [1] [%]
CCOC(=O)OC1=C(c2cc(C)ccc2Br)C(=O)NC12CCC(OC)CC2 (stereo not shown) [Example (I-2)] | 52 | 76 |  |  |  |  |  |  |  |  |  |  | 
CCOC(=O)OC1=C(c2cc(C)ccc2C)C(=O)NC12CCC(OC)CC2 (stereo not shown) [Example (I-4)] |  |  | 98 | 85.3 | 95.5 | 99 | 94 | 76 | 99.1 | 98.5 | 100 | 98 | 70

Reference: patent US20090012152A1, “Use of Tetramic Acid Derivatives for Controlling Insects from the Genus of the Plane Lice (Sternorrhyncha)” (Bayer CropScience Aktiengesellschaft, priority 2005, published 2009)
